# From ChEMBL document CHEMBL5390225, “Discovery and structural optimization of a new series of N-acyl-2-aminobenzothiazole as inhibitors of Zika virus” (Bioorg Med Chem, 2023)
# Tests used:
# Zika virus [1] = assay: Antiviral activity against Zika virus PE243 infected in African green monkey Vero E6 cells assessed as inhibition of viral replication incubated for 72 hrs by immunofluorescence analysis; assay type: functional, organism-based; details: PE243, Vero C1008, 72 h
# [2] = Cytotoxicity against African green monkey Vero E6 cells assessed as reduction in cell viability measured after 72 hrs by MTT assay; assay type: toxicity, cell-based, Vero C1008; details: chlorocebus sabaeus
# Zika virus [3] = assay: (§1) Inhibition of Zika virus BeH823339 NS2B protease (49 to 95 residues) R96A mutant/NS3 protease (1 to 170 residues) R29G/ C80S/C143S mutant expressed in Escherichia coli BL21 (DE3) cells using Bz-Nle-Lys-Lys-Arg-AMC as a fluorogenic substrate at 25 uM preincubated with enzyme for 10 mins in presence of BSA by fluorescence-based analysis relative to control
# Zika virus [4] = assay: as §1, with “100” for “25”, “mins” for “mins in presence of BSA”
# Zika virus [5] = assay: Antiviral activity against Zika virus PE243 infected in African green monkey Vero E6 cells assessed as inhibition of viral replication at 10 uM incubated for 72 hrs by immunofluorescence analysis; assay type: functional; details: PE243, Vero C1008
# [6] = as §1, with “substrate” for “substrate at 25 uM”, “mins” for “mins in presence of BSA”, “analysis” for “analysis relative to control”
# [7] = target: Cruzipain (Trypanosoma cruzi) (UniProt P25779); assay: Inhibition of recombinant Trypanosoma cruzi Cruzain using Z-Phe-Arg-AMC as fluorogenic substrate at 25 uM preincubated with enzyme for 10 mins by fluorescence-based analysis relative to control
# Zika virus [8] = assay: Antiviral activity against Zika virus infected in golden hamster BHK21-RepZIKV_IRES-Neo cells assessed as inhibition of viral replication by measuring reduction in renilla luciferase expression at 10 uM measured after 72 hrs by luciferase reporter gene assay relative to control; assay type: functional, Mesocricetus auratus; details: BHK-21
# [9] = Cytotoxicity against African green monkey Vero E6 cells assessed as cell viability at 10 uM measured after 72 hrs by MTT assay relative to control; assay type: toxicity, cell-based, Vero C1008; details: chlorocebus sabaeus, read-out: Activity
# [10] = Selectivity index, ratio of CC50 for cytotoxicity against African green monkey Vero E6 cells to EC50 for antiviral activity against Zika virus PE243 infected in African green monkey Vero E6 cells; assay type: toxicity, cell-based, Vero C1008; details: read-out: Ratio CC50/EC50
# Zika virus [11] = assay: as §1, with “with 2 nM” for “with”, “mins” for “mins in presence of BSA”
# Zika virus [12] = assay: as §1, with “100” for “25”, “0.001% TritonX-100” for “BSA”, “analysis” for “analysis relative to control”
# Zika virus [13] = assay: as §1, with “with 0.2 nM” for “with”, “mins” for “mins in presence of BSA”
# BHK-21 = assay: Cytotoxicity against golden hamster BHK21-RepZIKV_IRES-Neo cells assessed as reduction in cell viability measured after 72 hrs by MTT assay; assay type: toxicity, cell-based, Mesocricetus auratus; details: bhk-21, 72 h
# Zika virus [14] = assay: as §1, with “100” for “25”, “uM” for “uM preincubated with enzyme for 10 mins in presence of BSA”
# Zika virus [15] = assay: Antiviral activity against Zika virus PE243 infected in African green monkey Vero E6 cells assessed as inhibition of viral replication at 2 uM incubated for 72 hrs by immunofluorescence analysis; assay type: functional; details: PE243, Vero C1008
# [16] = Cytotoxicity against African green monkey Vero E6 cells assessed as cell viability at 2 uM measured after 72 hrs by MTT assay relative to control; assay type: toxicity, cell-based, Vero C1008; details: chlorocebus sabaeus, read-out: Activity
# Zika virus [17] = assay: as §1, with “10” for “25”
# [18] = target: Cruzipain (Trypanosoma cruzi) (UniProt P25779); assay: Inhibition of recombinant Trypanosoma cruzi Cruzain using Z-Phe-Arg-AMC as fluorogenic substrate at 12.5 uM preincubated with enzyme for 10 mins by fluorescence-based analysis relative to control
# Zika virus [19] = assay: as §1, with “Non-competitive inhibition” for “Inhibition”, “using 5.5 to 88 uM of” for “using”, “compound concentration close to IC50” for “25 uM”, “mins” for “mins in presence of BSA”
# Zika virus [20] = assay: as §1, with “12.5” for “25”, “with 2 nM” for “with”, “mins” for “mins in presence of BSA”
# Zika virus [21] = assay: as §1, with “12.5” for “25”, “with 0.2 nM” for “with”, “mins” for “mins in presence of BSA”
# Zika virus [22] = assay: as §1, with “50” for “25”, “with 0.2 nM” for “with”, “mins” for “mins in presence of BSA”
# Zika virus [23] = assay: as §1, with “50” for “25”
# [24] = target: Cruzipain (Trypanosoma cruzi) (UniProt P25779); assay: Inhibition of recombinant Trypanosoma cruzi Cruzain using Z-Phe-Arg-AMC as fluorogenic substrate at 50 uM preincubated with enzyme for 10 mins by fluorescence-based analysis relative to control
# Zika virus [25] = assay: as §1, with “50” for “25”, “with 2 nM” for “with”, “mins” for “mins in presence of BSA”
# Sequence of Cruzipain (Trypanosoma cruzi) (P25779 123-467 limits assumed): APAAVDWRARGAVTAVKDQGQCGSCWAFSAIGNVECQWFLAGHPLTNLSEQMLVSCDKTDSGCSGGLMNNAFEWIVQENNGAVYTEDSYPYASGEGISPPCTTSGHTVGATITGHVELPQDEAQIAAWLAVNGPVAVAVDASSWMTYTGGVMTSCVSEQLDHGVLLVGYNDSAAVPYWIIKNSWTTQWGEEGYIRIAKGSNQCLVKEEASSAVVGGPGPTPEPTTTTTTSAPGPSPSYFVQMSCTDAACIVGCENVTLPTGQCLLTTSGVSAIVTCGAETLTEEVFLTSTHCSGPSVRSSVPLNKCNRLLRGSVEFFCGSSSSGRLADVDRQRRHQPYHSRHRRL
Structure (SMILES),EC50 (Zika virus [1]),CC50 at 72 h [2],inhibition (Zika virus [4]),inhibition at 10 µM (Zika virus [5]),inhibition at 10 µM (Zika virus [8]),"viability at 72 h, 10 µM [9]",selectivity ratio [10],Activity (BHK-21),inhibition (Zika virus [14]),inhibition at 2 µM (Zika virus [15]),"viability at 72 h, 2 µM [16]",other results
COc1ccc(S(=O)(=O)Nc2ccccc2C(=O)Nc2nccs2)cc1,5 µM,38.7 µM,100%,100%,75.5%,34.8%,7.7,Non-Toxic,62%,68.6%,36.2%,inhibition (Zika virus [3]): 5%; IC50 [6]: 26 µM; inhibition [7]: 20%; inhibition (Zika virus [11]): 20%; inhibition (Zika virus [12]): 24%; inhibition (Zika virus [13]): 43%
COc1ccc(S(=O)(=O)Nc2ccc(C(=O)Nc3nc4ccccc4[nH]3)cc2)cc1,–,–,43%,0%,–,25.9%,–,–,–,0%,93.1%,–
O=C(CNS(=O)(=O)c1ccc(F)cc1)Nc1nc2ccccc2s1,–,–,43%,65.1%,–,26.5%,–,–,–,15.9%,95.6%,–
O=C(Nc1nc2ccccc2s1)c1ccc(NS(=O)(=O)c2ccc(F)cc2)cc1,–,–,27%,54.7%,–,40.4%,–,–,22%,15.3%,93.6%,–
O=C(Nc1nc2ccccc2s1)c1ccc(NS(=O)(=O)c2ccc([N+](=O)[O-])cc2)cc1,7.5 µM,30.2 µM,39%,72.1%,23.4%,99.7%,4,Non-Toxic,30%,0%,101%,–
COc1cc(Cl)ccc1S(=O)(=O)Nc1ccc(C(=O)Nc2nc3ccccc3s2)cc1,10.7 µM,23.9 µM,5%,100%,3.4%,17.5%,2.2,Non-Toxic,3%,64.5%,44%,–
CC(=O)Nc1ccc(S(=O)(=O)Nc2ccc(C(=O)Nc3nc4ccccc4s3)cc2)cc1,–,–,57%,25.8%,–,72.3%,–,–,44%,0.9%,98.1%,–
COc1ccc(OC)c(S(=O)(=O)NCC(=O)Nc2nc3ccccc3s2)c1,–,–,93%,7.9%,–,102%,–,–,51%,8.3%,112%,inhibition (Zika virus [3]): 11%; IC50 [6]: 24 µM; inhibition [7]: 3%; inhibition (Zika virus [11]): 12%; inhibition (Zika virus [12]): 12%; inhibition (Zika virus [13]): 28%
COc1ccc(S(=O)(=O)Nc2cccc(C(=O)Nc3nc4ccccc4s3)c2)cc1,5.1 µM,128 µM,11%,87.5%,40.3%,17.7%,25.1,Non-Toxic,2%,72.9%,79.3%,–
CC(C)(C)OC(=O)NCC(=O)Nc1nc2ccccc2s1,17 µM,79 µM,–,56.5%,–,60.1%,4.7,–,–,18.9%,104%,–
O=C(Nc1nc2ccccc2s1)c1ccc(NC(=S)Nc2ccccc2)cc1,–,–,99%,73.6%,–,29%,–,–,46%,9.4%,96%,inhibition (Zika virus [17]): 12%; inhibition [18]: 72%; IC50 [6]: 8 µM; inhibition (Zika virus [19]): 25%; inhibition (Zika virus [20]): 9%; inhibition (Zika virus [21]): 15%; inhibition (Zika virus [12]): 46%
O=C(Nc1nc2ccccc2s1)c1ccc(NS(=O)(=O)c2ccc(Br)cc2)cc1,5 µM,45.8 µM,4%,75.7%,60.4%,22.7%,9.2,Non-Toxic,7%,69.1%,97%,–
COc1ccc(S(=O)(=O)Nc2ccc(C(=O)Nc3nccs3)cc2)cc1,–,–,7%,16.1%,–,98.9%,–,–,–,4.9%,95.7%,–
Cc1ccc(S(=O)(=O)Nc2ccc(C(=O)Nc3nc4ccccc4s3)cc2)cc1,–,–,28%,83%,–,19.5%,–,–,20%,5.5%,70.6%,–
COc1ccc(S(=O)(=O)Nc2ccccc2C(=O)Nc2nc3ccccc3s2)cc1,–,–,100%,1%,–,104%,–,–,92%,5.4%,98.5%,inhibition (Zika virus [22]): 39%; inhibition (Zika virus [23]): 20%; inhibition [24]: 96%; IC50 [6]: 24 µM; inhibition (Zika virus [25]): 25%; inhibition (Zika virus [12]): 53%
Cc1ccc(S(=O)(=O)NCC(=O)Nc2nc3ccccc3s2)cc1,–,–,21%,27.9%,–,74.4%,–,–,–,6.8%,101%,–
COc1ccc(S(=O)(=O)NCC(=O)Nc2nc3ccccc3s2)cc1,–,–,62%,0%,–,82.7%,–,–,–,0%,104%,–
COc1ccc(S(=O)(=O)Nc2ccccc2C(=O)Nc2nc3ccccc3[nH]2)cc1,33.9 µM,56.5 µM,100%,98.8%,46.4%,19.9%,1.7,Non-Toxic,62%,97.6%,33.5%,inhibition (Zika virus [17]): 8%; inhibition [18]: 58%; IC50 [6]: 8 µM; inhibition (Zika virus [20]): 16%; inhibition (Zika virus [21]): 62%; inhibition (Zika virus [12]): 42%
O=C(Nc1nc2ccccc2s1)c1ccc(NS(=O)(=O)c2ccccc2)cc1,–,–,28%,82.6%,–,17.7%,–,–,20%,44.7%,85.9%,–
